In paper PMC9714824, “Hexapeptides from mammalian inhibitory hormone hunt activate and inactivate nematode reproduction” (PLOS ONE, 2022):

What was measured:
[1] = test system: human marrow derived mesenchymal stem cells (hMSCs); assay: Peptide immobilisation studies, hMSC proliferation (CyQuant) and FACS; type: cell-based; conditions: alanine substitution study; for Mean cell number: N-terminally tethered, seeding 5,000 cells per well, CyQuant, mean +/− SEM, n = 3
Excerpt: Could the antiproliferative activity in vitro of EPL001 in solution be more predictably evoked and investigated more readily if the peptide is instead tethered to the cell culture’s substratum? […] In the first study EPL001 was immobilised by either its N terminus or C terminus and human stem cells exposed accordingly. This followed a confirmation of dissolved EPL001’s antiproliferative activity in the same laboratory (JAH). In the second study, aa sections of EPL001 were substituted with alanine strings prior to tethering, to define a functional biological motif. Into the base of each well of a 24-well plate was inserted a glass coverslip (13mm diameter, borosilicate glass, SLS, Nottingham, UK), upon the upper surface of which had been immobilised an individual peptide using a bioconjugate technique. During preparation of the coverslips, the surfaces were modified with carboxyl (−COOH) or amine (−NH2) groups separately using a published method. The carboxyl on the coverslips or at the end of the peptide sequence were reacted with NHS in the presence of EDC, resulting in a semi-stable NHS ester, which could then be reacted with primary amines (−NH2) on the coverslips or at the end of the peptide sequences to form amide crosslinks. For the carboxyl modified coverslips, the final peptide grafted on to the surface via its NH2 terminus was in the form Glass-CO-NH-Peptide. For the amine modified coverslips, the final peptide grafted on to the surface via its COOH terminus was in the form Glass-NH-CO-Peptide. The concentration of the peptides across the glass was approximately […]. Uncoated glass was used as the reference control. Treatments were in triplicate (i.e. n = 3). The cells used were human marrow derived mesenchymal stem cells (hMSCs, Lonza, Slough, UK, cat No PT-2507). In the EPL001-terminus study they were seeded at 10,000 cells per well; in the alanine substitution study the density was 5,000 cells per well. The cells were maintained in DMEM with 10% FSC. EPL001 and three alanine-substituted versions of it were deployed separately: MKPLTGKVKEFNNI (EPL001), AAAAAGKVKEFNNI (EPL590), MKPLTAAAAEFNNI (EPL545) and MKPLTGKVKEAAAA (EPL104). The peptides in the alanine substitution study were N-terminally tethered to the substrate. Cell numbers were measured by CyQuant® (Invitrogen, Paisley, UK). […] Statistical analysis was by ANOVA using SPSS software.
Four 14-aa peptides were synthesised: MKPLTGKVKEFNNI (EPL001), AAAAAGKVKEFNNI (EPL590), MKPLTAAAAEFNNI (EPL545) and MKPLTGKVKEAAAA (EPL104). The peptides were generated from l-isomer amino acids by solid phase peptide synthesis (Model 9050, Milligen). All peptides were N-terminally tethered to the substrate by a bioconjugate technique. MSCs were derived from human bone marrow and maintained in DMEM with 10% FSC. Cells were seeded on peptide treated surfaces including a glass control in a 24-well plate with cell density 5 x 10^3. The growth inhibitory activity was examined via cell proliferation assays and cell cycle analysis, using PI and Ki-67 staining. The cell phenotype and viability (7-AAD) were analysed by flow cytometry.

LNCaP cells = assay: MTS viable cell assay, LNCaP (Epistem); type: cell-based, human; conditions: over 72h, single dose level
Experimental: Further assays on human prostate cancer cells were conducted at a contract research organisation (Epistem, Manchester, UK). LNCaP or DU145 cells seeded at 3,000 cells/well across a 96-well plate were cultured in RPMI (phenol red free), 10% FCS, 1% sodium pyruvate, Pen/strep and L-glutamine for 24h before exposure to peptides, at a single dose level in the case of LNCaPs or multiple dose levels in the case of DU145s. (For dose levels see Results.) Controls received vehicle (1% PBS). For the DU145s peptide administration was repeated after 24h. 72h after the first administration (DU145s) or only administration (LNCaP) total viable cell numbers were measured colorimetrically (MTS) using a CellTiter 96 AQueous One Solution Cell Proliferation Assay (Promega, Southampton, UK), following manufacturer’s instructions. Briefly, the media on the plates was replaced with the CellTiter reagent diluted 1:5 in DMEM. The plates were returned to the incubator for 3 hours before reading absorbance at 492 nm on a FLUORstar OPTIMA (BMG Labtech). CellTiter data are the absorbance minus background values (CellTiter plus DMEM), expressed as (OD mean +/− SEM). Statistical analysis was by ANOVA, Dunnett’s multiple comparisons test.

Steinernema siamkayai [2] = assay: Steinernema siamkayai reproduction and development on lipid agar plates with hexapeptides; type: in vivo; design: key to Infective juveniles / Adults: counts per plate, scaled from 0.05 ml subsamples to 20 ml; conditions: for Infective juveniles / Adults: S3 Table 2
Excerpt: (§1) The attempt was made here to replicate prior fecundity work in another species of nematode, the entomopathogenic (insect slaying) Steinernema siamkayai. Species confirmation involved standard morphological and molecular techniques (S3 File, Nematodes). S. siamkayai is a biocontrol agent of potential economic significance in global agriculture, reducing the need for pesticides. Crucial for deployment is the production of ‘infective juveniles’. These forms penetrate the larvae of insect pests, releasing a bacterium, Xenorhabdus spp., which ultimately kills the larvae. Stock solutions (5 mg mL^-1) of EPL036 (IEPVFT) and EPL630 (KLKMNG) were made up and stored at −20 °C. Lipid Agar plates were prepared by pouring 5 ml media in 60 mm plastic Petri dishes. The plates were inoculated with an overnight-grown bacterial culture of Xenorhabdus spp. (10^9 cfu/ml) at 100 μl/plate and incubated at 28 °C for 24h. Xenorhabdus bacteria are symbiotically associated with S. siamkayai. While multiplying, Xenorhabdus metabolises the constituents of the lipid agar and the resulting by-products are the food supplement for the nematodes that triggers the worms to grow and multiply. From the stock solutions, peptides were introduced individually into the centre of the Lipid Agar plates with Xenorhabdus lawn. Two concentrations of peptide were used, 4 and 8 μL of the 5 mg mL^-1 stock peptide solutions (making 20 and 40 μg of peptide per plate in total, respectively, i.e. ~6 and ~12 μM). Each peptide solution was uniformly spread using an L shaped spreader and allowed to absorb into the agar plate for 10 minutes. Nematodes were harvested beforehand as follows. Third-stage infective juveniles (IJs) of S. siamkayai were used to infect fourth instar Galleria larvae. Following larval death, the Galleria cadavers were placed on a White’s Trap to harvest fresh progeny within 5–6 days. After storage in sterile water, these new-generation IJs were concentrated and inoculated on the bacterial plates on Day 1 at 500 and 1000 IJs /plate. The eight treatments (two inocula at two peptide concentrations) and two controls (two inocula without peptides) were replicated (x3) and incubated at 28 °C. Observations of behaviour and morphology were made at intervals throughout the study, then on Day 5 (i.e. after 4 units of 24h) the nematodes were harvested. Two ml of distilled water was poured on each Petri dish and gently stirred to release the nematodes from the surface. The surface washings containing suspended nematodes were collected in a standard volume of 20 ml of distilled water. The number of mature adults (male and female) and the second-generation juveniles (J1, J2, J3 and pre-adults) were counted using a dissecting microscope (x10 magnification, 4 fields) in 0.05 ml subsamples (x3) and multiplied up to the standard volume of 20 ml.
Fig 2 Developmental impact on Steinernema siamkayai of hexapeptides after 4 days. INOCULUM = founding population of infective juveniles (IJs). ‘Infective juveniles’ on the vertical axis are mostly second-generation IJs. Peptides applied at the start of the study were EPL036 = IEPVFT, […] = KLKMNG. Total = Adults + Infective juveniles. Data are mean +/- SEM (average of 3 replicates). Statistical analysis: ANOVA. Control bars are doubly represented for ease of comparison. Note different vertical axes. […]

rat bone marrow cells = assay: Bone marrow cell assay, time-lapse cell counts over 24h; type: cell-based; conditions: 1μM final concentration, in words (Fig 7)
Experimental: The method has been described previously at length. Bone marrow cells, consisting of various cell types including mesenchymal stem cells and fibroblasts, were cultured from adult male rats (Rattus norvegicus, SD strain). These cells were passaged from a growing primary stock in a T75 tissue culture flask (Sarstedt) into a 48 well tissue culture plate (IWAKI), with a cell density of 1 x 10^5/ml. The cell culture media, henceforth referred to as ‘supplemented a-MEMS,’ comprised α-MEMS media supplemented with 10% FCS and 1% penicillin/streptomycin (all Life Technologies, Carlsbad, CA, US). On the day of peptide addition to the cells, the supplemented α-MEMS was gently removed and fresh supplemented α-MEMS added, with 10% test material by volume to achieve micromolar concentrations, untreated controls receiving just fresh supplemented α-MEMS. (For dose levels see legends in respective result figures) All samples were filter sterilised using a Millex-GV […] syringe filter unit (Merck, Kenilworth, NJ, USA). The cells were imaged for 24 h using an incubated Zeiss Axiovert 135M microscope with a Prior Proscan II motorised stage, at 37 °C with a 5% CO2 in air feed. Each well of the 48-well tissue culture plate was then imaged for 24h every 5 min using Metamorph software (MDS Analytical Technologies, Wokingham, UK), with each well having four fields of view. The viability and cell numbers were reviewed by analysing the images captured over the 24h period and cell counts were taken at selected time points using the Metamorph software.
Fig 6 Bone marrow cells in culture exposed to long peptides. Cells were counted over 24h after exposure to the 14mer peptide EPL001 or its scrambled-sequence control EPL030 at 6μM final concentration or to the 20mer EPL120 at 5μM final concentration, compared to peptide-untreated controls.
Fig 7 Bone marrow cells in culture exposed to hexapeptides. Cells were counted over 24h after exposure to either EPL016 (= MKPLTG, the ‘Front 6’ of the 14mer EPL001) or EPL036 (= IEPVFT, the ‘Back 6’ of EPL030, the scrambled-sequence control of EPL001) at 1μM final concentration, compared to peptide-untreated controls.

Steinernema siamkayai [3] = assay: Nematode pilot study fecundity (S3 Table 1); type: in vivo; conditions: inoculum 5 IJs
Excerpt: as §1
Mean number of A) Infective juveniles and B) Adults following inoculation of Petri dishes treated with EPL036 and EPL630 at 4 µL and 8 µL and an untreated control; Petri dishes were initially inoculated with 5 infective juveniles of Steinernema siamkayai following the method used in the main manuscript (Single way ANOVA presented beneath each data set).

Caenorhabditis elegans = conditions: cited from earlier work
Excerpt: As a control compound there was synthesized EPL030, having the aa sequence KLKMNGKNIEPVFT. This is a scrambling of EPL001’s sequence, based on cards drawn at random by one of us (CRM). […] The figures for fecundity were EPL001 +43 ... || Returning to EPL030, the scrambled-sequence EPL001 comparator, this has engendered perplexity by displaying the same activity as EPL001 across multiple mammalian systems. Thus, EPL030 suppressed human prostate cancer cells in vitro more than EPL001 in two laboratories and the proliferation of rat bone marrow cells in vitro in a third.

[4] = 4 µL, inoculum 1000, mean of 3 reps
[5] = 8 µL, inoculum 1000, mean of 3 reps

**Q.** Which results are given for “AAAAAGKVKEFNNI [EPL590, Substituted EPL001; alanines 1–5]”?
**A.** Cell number vs Glass ([1]; Day 7): 16%; Cell number vs Glass ([1]; Day 14): −23%; Mean cell number ([1]; Day 7): 11,805 +/−4,028; Mean cell number ([1]; Day 14): 20,347 +/−2,264; Reduction in test mean OD versus the vehicle control mean (LNCaP cells): −21.4%

**Q.** What does the source list for IEPVFT [EPL036, IEPVFT, EPL030 Back 6]?
**A.** Infective juveniles (Steinernema siamkayai [2]; 4 µL, inoculum 500, mean of 3 reps): 7482; Adults (Steinernema siamkayai [2]; [4]): 446; Infective juveniles (Steinernema siamkayai [2]; [4]): 13686; Infective juveniles (Steinernema siamkayai [2]; 8 µL, inoculum 500, mean of 3 reps): 9644; Adults (Steinernema siamkayai [2]; [5]): 10; Infective juveniles (Steinernema siamkayai [2]; [5]): 19161; Infective juveniles (Steinernema siamkayai [2]; 8 µL, inoculum 1000, rep 1): 19141; Infective juveniles (Steinernema siamkayai [2]; 8 µL, inoculum 1000, rep 2): 19149; Infective juveniles (Steinernema siamkayai [2]; 8 µL, inoculum 1000, rep 3): 19193; Egg production in females (Steinernema siamkayai [2]; compared with untreated controls, 48h exposure (Fig 3)): visibly bloated with eggs; Time after incubation to fully grown males and females (Steinernema siamkayai [2]; observational): 36 h; Time for infective juveniles to transform into pre-adults (Steinernema siamkayai [2]; observational): ≤ 24 h; Effect on bone marrow cells in culture (rat bone marrow cells): cytostatic; Adults (Steinernema siamkayai [3]; 4 µL, mean of 9 reps): 1.7; Infective juveniles (Steinernema siamkayai [3]; 4 µL, mean of 9 reps): 43.2; Adults (Steinernema siamkayai [3]; 4 µL, rep 1): 1; Adults (Steinernema siamkayai [3]; 4 µL, rep 2): 1; Adults (Steinernema siamkayai [3]; 4 µL, rep 3): 2; Adults (Steinernema siamkayai [3]; 4 µL, rep 4): 1; Adults (Steinernema siamkayai [3]; 4 µL, rep 5): 2; Adults (Steinernema siamkayai [3]; 4 µL, rep 6): 2; Adults (Steinernema siamkayai [3]; 4 µL, rep 7): 2; Adults (Steinernema siamkayai [3]; 4 µL, rep 8): 2; Adults (Steinernema siamkayai [3]; 4 µL, rep 9): 2; Adults (Steinernema siamkayai [3]; 8 µL, mean of 9 reps): 0; Infective juveniles (Steinernema siamkayai [3]; 8 µL, mean of 9 reps): 75.8; Adults (Steinernema siamkayai [3]; 8 µL, rep 1): 0; Adults (Steinernema siamkayai [3]; 8 µL, rep 2): 0; Adults (Steinernema siamkayai [3]; 8 µL, rep 3): 0; Adults (Steinernema siamkayai [3]; 8 µL, rep 4): 0; Adults (Steinernema siamkayai [3]; 8 µL, rep 5): 0; Adults (Steinernema siamkayai [3]; 8 µL, rep 6): 0; Adults (Steinernema siamkayai [3]; 8 µL, rep 7): 0; Adults (Steinernema siamkayai [3]; 8 µL, rep 8): 0; Adults (Steinernema siamkayai [3]; 8 µL, rep 9): 0; Increase in cumulative offspring vs untreated controls (Caenorhabditis elegans): +79%
